Here are results for 1 compound from patent US11519014B2, “Specific substrate of an ALDH isoenzyme” (ADVANCED BIODESIGN, priority 2016, dated 2022).

SMILES strings stand for the structures.

Experiment [1] concerns the target T1, ALDH1A1 (Homo sapiens, UniProt P00352).
T1 construct: purchased R&D Systems 5869-DH
T1 sequence (P00352 1-501): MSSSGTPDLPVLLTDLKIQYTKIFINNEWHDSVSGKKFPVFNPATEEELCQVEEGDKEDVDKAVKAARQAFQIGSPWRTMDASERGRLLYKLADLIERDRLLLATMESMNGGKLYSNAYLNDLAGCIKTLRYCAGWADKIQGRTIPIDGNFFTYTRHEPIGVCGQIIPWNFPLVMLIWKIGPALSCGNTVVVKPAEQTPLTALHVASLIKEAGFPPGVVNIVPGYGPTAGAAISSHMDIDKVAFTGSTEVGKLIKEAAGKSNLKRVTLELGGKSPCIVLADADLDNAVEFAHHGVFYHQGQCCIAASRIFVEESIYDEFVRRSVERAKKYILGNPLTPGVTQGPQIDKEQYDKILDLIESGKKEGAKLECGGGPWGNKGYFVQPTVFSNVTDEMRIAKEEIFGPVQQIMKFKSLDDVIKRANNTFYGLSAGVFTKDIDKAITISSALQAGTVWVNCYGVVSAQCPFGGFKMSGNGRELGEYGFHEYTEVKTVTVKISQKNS
Nature of the experiment: Determination of the Km and Vmax of resorufine propionate with purified ALDH1A1. The class given is biochemical. The settings on record: column ALDH1; relative to ALDH1. The method, then:
(§1) In 50 μl of 0.1 M phosphate buffer pH6.00; 0.2 M KCl; 2 mM NADP+; 2 mM EDTA, a range of resorufine propionate was made: 250, 200, 150, 125, 100, 90, 80 and 70 μM and 0 μM. 50 μL of recombinant enzyme solution at 2.5 mU/well ALDH1A1 (R&D Sytems, 5869-DH), ALDH2 (abcam, ab87415) and ALDH3A1 (R&D Sytems, 6705-DH) was added. The incubation was carried out for 30 minutes at +37° C. and then the fluorescence reading was made (Em: 590 nm, Ex: 530 nm). The data were then converted to resorufin released (nM·min-1.μg^−1) and Km and Vmax were calculated using the Michaelis-Menten equation using GraphPad Prism 5.0.

In the next experiment the target is T2, ALDH3A1 (Homo sapiens, UniProt P30838).
T2 construct: purchased R&D Systems 6705-DH
T2 sequence (P30838 1-453): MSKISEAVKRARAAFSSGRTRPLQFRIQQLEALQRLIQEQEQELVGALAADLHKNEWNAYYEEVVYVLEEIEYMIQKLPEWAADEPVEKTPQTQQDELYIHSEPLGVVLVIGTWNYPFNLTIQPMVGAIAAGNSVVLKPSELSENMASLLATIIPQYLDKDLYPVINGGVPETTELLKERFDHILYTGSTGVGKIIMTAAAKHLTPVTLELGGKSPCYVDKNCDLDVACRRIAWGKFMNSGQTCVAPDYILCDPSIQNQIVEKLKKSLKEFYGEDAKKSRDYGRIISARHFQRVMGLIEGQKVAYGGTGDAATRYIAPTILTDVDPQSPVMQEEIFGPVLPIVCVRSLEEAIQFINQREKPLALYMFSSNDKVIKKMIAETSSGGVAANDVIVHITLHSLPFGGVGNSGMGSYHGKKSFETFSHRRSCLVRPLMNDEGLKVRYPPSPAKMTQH
Nature of the experiment: Determination of the Km and Vmax of resorufine propionate with purified ALDH3A1. The class given is biochemical. The settings on record: column ALDH3. How it is done:
as §1

The target in experiment [2] is T1, ALDH1A1. The experiment in a line: ALDH1 activity by resorufine propionate after treatment with interfering RNA ALDH1A1 (NCI-H522 cells). The class given is cell-based. The settings on record: 100 nM of siRNA, 10 μM resorufin propionate, P<0.05, FIG. 2. The method, then:
In a 60 mm Petri dish, the NCI-H522 cells were seeded at a concentration of 250.000 cells/plate, corresponding to a confluence of 40-50%, in RPMI-1640 medium supplemented with L-Glutamine, Penicillin, Streptomycin and 10% Fetal Calf Serum (FCS) overnight at 37° C. The next day, the medium was replaced by the same medium without FCS. The transfection solution was then prepared by diluting 100 nM in 500 μL of culture medium without FCS, to which 500 μL of culture medium without FCS supplemented with 3 μL of lipofectamine 2000 (Invitrogen) was added. The solution was then incubated for 30 minutes at room temperature and then drops added to the cell solution. The mixture was incubated at +37° C. in a 5% CO2 incubator for 8 hours. […] The specific activity of ALDH1A1 was then assayed by fluorescence.
The cells were inoculated at a concentration of 1×10^4 cells/well in a 96-well plate in 100 μl in RPMI-1640 medium without phenol red supplemented with L-Glutamine, Penicillin, Streptomycin and 10% Fetal Calf Serum (FCS) supplemented with 10 μM resorufin propionate. The cells were then incubated for 1 hour and then the plate was read using an Appliskan fluorescent plate reader (ex=560 nm, Em=600). The data were expressed in relative fluorescence units produced by an equal number of cells.

The next experiment addresses T3, ALDH2 (Homo sapiens, UniProt P05091).
T3 construct: purchased abcam ab87415
T3 sequence (P05091 18-517): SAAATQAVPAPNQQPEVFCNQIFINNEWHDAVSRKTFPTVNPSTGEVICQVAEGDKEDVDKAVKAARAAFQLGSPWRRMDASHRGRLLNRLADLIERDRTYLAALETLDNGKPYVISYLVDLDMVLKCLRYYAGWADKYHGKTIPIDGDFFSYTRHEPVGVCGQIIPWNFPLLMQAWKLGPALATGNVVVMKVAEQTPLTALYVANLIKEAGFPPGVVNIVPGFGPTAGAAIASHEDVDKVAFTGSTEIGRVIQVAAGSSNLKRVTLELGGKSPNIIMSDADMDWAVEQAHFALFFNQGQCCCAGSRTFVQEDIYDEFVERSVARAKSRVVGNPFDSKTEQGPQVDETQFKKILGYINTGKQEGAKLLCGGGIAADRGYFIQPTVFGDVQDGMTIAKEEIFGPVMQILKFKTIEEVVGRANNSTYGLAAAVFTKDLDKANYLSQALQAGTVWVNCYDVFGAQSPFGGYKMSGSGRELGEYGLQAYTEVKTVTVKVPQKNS
The experiment in a line: Determination of the Km and Vmax of resorufine propionate with purified ALDH2. The class given is biochemical. To be noted: column ALDH2; relative to ALDH1. How it is done:
as §1

Experiment [3] deals with T1, ALDH1A1. The experiment in a line: Double localization of resorufin propionate and ALDH1A1 by fluorescent microscopy (NCI-H522 cells). The class given is cell-based. To be noted: 10 μM resorufin propionate, 30 minutes, results not shown. The method, then: In a 24-well plate with microscope glasses previously washed with ethanol and then placed in the wells, the NCI-H522 cells were added at a cell concentration of 50.000 cells/well and then incubated in RPMI-1640 medium supplemented with L-Glutamine, Penicillin, Streptomycin and 10% Fetal Calf Serum overnight at +37° C. with a 5% CO2 atmosphere. The next day, the culture medium was changed with either DIMATE (5 μM) or the treatment vehicle and incubated for 6 hours. The cells were incubated for 30 minutes with culture medium supplemented with 10 μM of resorufin propionate, were then washed with cold PBS and then fixed with paraformaldehyde for 15 minutes at 37° C. The cells were permeabilized and saturated with PBS; 3% bovine albumin; 0.3% triton for 1 hour. The incubation was carried out with the anti-ALDH1A1 antibody (R&D System, MAB5869) for 1 hour at +37° C., then with an anti-mouse antibody coupled to fluorescein for 1 hour at room temperature in the dark, with PBS washes between the two steps. 3 washes with PBS were carried out then the microscopy glasses were mounted with an anti-decoloration support supplemented with DAPI. The cells were then observed under a microscope.

The term Km denotes the substrate concentration at which the rate is half of its maximum.

As to `CCC(=O)Oc1ccc2nc3ccc(=O)cc-3oc2c1` [resorufine propionate, Resorufine propionate], the Increase was 1 at ALDH1A1 [1], 0.17 on ALDH3A1 (relative to ALDH1) and 0.54 at ALDH2. Further, at ALDH3A1 (substrate range 70-250 μM), the Km was 445 µM. Besides, the “signal resorufine propionate after ALDH1A1 siRNA” value at ALDH1A1 [2] is listed as “decrease significant”. The “colocalization of fluorescent signal with ALDH1A1” value at ALDH1A1 [3] is reported as “can be colocalized with ALDH1A1”.
